According to US10286084B2, “Compositions for the inactivation of virus replication and methods of making and using the same” (priority 2014, dated 2019):

Tests used:
[1] = test system: HPV-18 E7 gene; assay: Mutagenesis spectra: PCR, cloning and sequencing of HeLa genomic DNA; format: cell-based; conditions: Spy Cas9, 48 h post-transfection, of 232 DNA sequences
Experimental: (§1) HeLa cells were plated at 2.5×10^5 cells per well in 6-well plates and transfected using Fugene6 with a 3 to 1 ratio of RGN expression vector to pL/CMV/eGFP (pLCE) (Seedorf et al., 1987), which expresses eGFP, to determine transfection efficiency. Genomic DNA was extracted 48 hours post-transfection using a DNeasy kit (Qiagen) following the manufacturer's protocol. The genomic region surrounding the viral target sites was PCR amplified using GoTaq cocktail (Promega, #9PIM300) and then purified. PCR products were then denatured and reannealed to enable DNA heteroduplex formation: 95° C. for 10 min, 95° C. to 85° C. ramping at −1° C./sec, 85° C. to 25° C. at −0.25° C./sec, and 25° C. hold for 1 minute. After reannealing, products were treated with SURVEYOR nuclease and SURVEYOR enhancer S (Transgenomics) following the manufacturer's protocol, and analyzed on a 2% agarose gel. To determine the sequence spectra of the mutations introduced by HPV-18 E6- and E7-specific sgRNAs, we designed primers with unique restriction enzyme sites that bound sequences flanking the predicted RGN cleavage locations. The mutagenized HeLa genomic DNA was PCR amplified at 48 hours after transfection, cloned, sequenced, and aligned to the HeLa genome.
(§2) We next asked if we could inactivate the endogenous HPV-18 E6 and E7 genes integrated into the HeLa cell genome. As all four sgRNAs appeared to function equivalently, we focused our subsequent research on E6 sgRNA1 and E7 sgRNA1. To confirm these sgRNAs were indeed inducing the expected DNA cleavage, we used the SURVEYOR assay to determine if we could detect RGN-induced indels at the predicted Cas9 cleavage site. For this purpose, we transfected HeLa cells with a px330-based vector encoding Spy Cas9 (Cong et al., 2013) and an E6- or E7-specific sgRNA. At 48 hours post-transfection, we isolated the HeLa genomic DNA and PCR-amplified the regions of the HPV-18 genome containing either the E6 or E7 target site for Cas9. The resultant PCR fragment was then isolated, denatured and then re-annealed to produce a population of DNA heteroduplexes that were digested using SURVEYOR nuclease, which is predicted to cleave at any sites of Cas9-induced mutagenesis. […] To further characterize these mutations, we cloned the same PCR fragments derived from the HPV-18 E6 or E7 gene and then performed DNA sequencing across the predicted cleavage site located 3 bp 5′ to the Cas9 PAM sequence (Mali et al., 2013). Analysis of the HPV-18 E6 gene gave 234 DNA sequence reads, of which 19 bore an assortment of different deletion mutations while 34 contained the same insertion mutation of a single “A” residue 3 bp 5′ to the Spy Cas9 PAM motif. The remaining 181 samples analyzed contained the wildtype E6 sequence. […]

[2] = test system: HPV-18 E6 gene; assay: as above; format: cell-based; conditions: Spy Cas9, 48 h post-transfection, of 234 DNA sequence reads
Experimental: as §1, §2

Substance	DNA sequences with deletion mutations adjacent to the predicted cleavage site [1]	DNA sequences with insertions of 1 or 2 bp [1]	DNA sequence reads bearing deletion mutations [2]	DNA sequence reads with insertion of a single A residue 3 bp 5′ to the PAM [2]
E7 sgRNA1: Spy Cas9 sgRNA for HPV-18 E7, GGAGCAATTAAGCGACTCAG; SEQ ID NO: 10 (expressed or natural sequence)	6	46	–	–
E6 sgRNA1: Spy Cas9 sgRNA for HPV-18 E6, GGCGCTTTGAGGATCCAACA; SEQ ID NO: 8 (expressed or natural sequence)	–	–	19	34
